In ChEMBL document CHEMBL3797190, “Development of 3,5-Dinitrobenzylsulfanyl-1,3,4-oxadiazoles and Thiadiazoles as Selective Antitubercular Agents Active Against Replicating and Nonreplicating Mycobacterium tuberculosis” (J Med Chem, 2016):
In brackets after ≈: the same amount, converted by molar mass. Activity calls are given as the source filed them. The rule behind the calls is not given here.

Tests used:
[1] = system: Mycobacterium tuberculosis H37Ra; experiment: Inhibition of DprE1 in Mycobacterium tuberculosis H37Ra assessed as accumulation of trehalose dimycolate at 0.2 ug/ml preincubated for 24 hrs followed by radiolabeling with [14C]-acetate for 24 hrs by TLC/autoradiographic method
Nakaseomyces glabratus = experiment: Antifungal activity against Candida glabrata 20/I after 24 to 48 hrs by broth microdilution method; assay type: functional
HeLa = experiment: Cytotoxicity against human HeLa cells assessed as cell viability after 48 hrs by MTS assay; assay type: cell-based
[2] = Intrinsic clearance in human liver microsomes assessed per mg of protein at 3 uM preincubated for 5 mins followed by NADPH addition by HPLC analysis; assay type: ADME; conditions: read-out: CLH
[3] = system: Mycobacterium tuberculosis; experiment: Antimycobacterial activity against non-replicating streptomycin-starved Mycobacterium tuberculosis SS18b-Lux by resazurin reduction microplate assay; assay type: functional, organism-based
Pseudomonas aeruginosa = experiment: Antibacterial activity against Pseudomonas aeruginosa ATCC 9027 after 24 to 48 hrs by broth microdilution method; assay type: functional
Mycobacterium kansasii [4] = experiment: Antimycobacterial activity against Mycobacterium kansasii CNCTC My 6509/96 after 7 days by microdilution method; assay type: functional; conditions: CNCTC My 6509/96, 168 h
[5] = Cytotoxicity against human HuH7 cells assessed as cell viability after 48 hrs by MTS assay; assay type: cell-based; conditions: Huh-7, 48 h
[6] = system: Mycobacterium tuberculosis; experiment: Antimycobacterial activity against Mycobacterium tuberculosis CNCTC My 331/88 after 21 days by microdilution method; assay type: functional; conditions: CNCTC My 331/88, 504 h
[7] = system: Mycobacterium tuberculosis; experiment: Inhibition of proteosynthesis in Mycobacterium tuberculosis H37Ra assessed as reduction of [14C]-methionine incorporation at 1 ug/ml preincubated for 1 hr followed by radiolabeling with [14C]-methionine for 24 hrs by scintillation spectrometry; assay type: functional
Enterococcus faecalis = experiment: Antibacterial activity against Enterococcus faecalis J 14365/08 after 24 to 48 hrs by broth microdilution method; assay type: functional
[8] = Cytotoxicity against human HuH7 cells assessed as cell viability at 20 uM after 24 hrs by MTS assay; assay type: cell-based, Huh-7; conditions: read-out: Activity
Mycobacterium kansasii [9] = experiment: Antimycobacterial activity against Mycobacterium kansasii CNCTC My 235/80 after 7 days by microdilution method; assay type: functional; conditions: CNCTC My 235/80, 168 h
Mycobacterium kansasii [10] = experiment: Antimycobacterial activity against Mycobacterium kansasii CNCTC My 235/80 after 14 days by microdilution method; assay type: functional; conditions: CNCTC My 235/80, 336 h
[11] = system: Mycobacterium tuberculosis; experiment: Antimycobacterial activity against Mycobacterium tuberculosis CNCTC My 331/88 after 14 days by microdilution method; assay type: functional; conditions: CNCTC My 331/88, 336 h
PBL [12] = experiment: Genotoxicity in human PBL at 0.6 to 12 mM by micronucleus test in absence of metabolic activation; assay type: toxicity, cell-based; conditions: 12000 µM
[13] = Cytotoxicity against MDCK2-MDR1 cells assessed as cell viability after 48 hrs by MTS assay; assay type: ADME, cell-based; conditions: Canis lupus familiaris, MDCK-II
[14] = Chemical stability of compound in DMSO under open-vessel condition at 4 mg/ml at 60 degC after 3 days by 1H-NMR analysis; assay type: physicochemical; conditions: 72 h
PBL [15] = experiment: Genotoxicity in human PBL at 0.6 to 12 mM by chromosome aberration test in absence of metabolic activation; assay type: toxicity, cell-based; conditions: 12000 µM
PBL [16] = experiment: Genotoxicity in human PBL at 0.6 to 12 mM by micronucleus test in presence of metabolic activation; assay type: toxicity, cell-based; conditions: 12000 µM
PBL [17] = experiment: Genotoxicity in human PBL at 0.6 to 12 mM by chromosome aberration test in presence of metabolic activation; assay type: toxicity, cell-based; conditions: 12000 µM

Row | SMILES | inhibition [1] | MIC80 (Nakaseomyces glabratus) [µM] | IC50 (HeLa) [µM] | microsomal CLint at 3 µM [2] [µL/min/mg] | Activity [3] | MIC95 (Pseudomonas aeruginosa) [µM] | MIC99 (Mycobacterium kansasii [4]) [µM] | MIC99 [6] [µM] | inhibition at 1 µg/mL [7] [%] | MIC95 (Enterococcus faecalis) [µM] | viability at 24 h, 20 µM [8] [%] | MIC99 (Mycobacterium kansasii [9]) [µM] | MIC99 (Mycobacterium kansasii [10]) [µM] | MIC99 [11] [µM] | further results
1 | Cc1ccc(-c2nnc(SCc3cc([N+](=O)[O-])cc([N+](=O)[O-])c3)o2)cc1 | inactive | > 125 | > 20 | 86 | Dose-dependent effect | > 125 | 0.06 (≈ 0.0223 µg/mL) | ≤ 0.03 | 37 | > 125 | 101 | 0.06 (≈ 0.0223 µg/mL) | 0.06 (≈ 0.0223 µg/mL) | ≤ 0.03 | IC50 [5]: > 20 µM
2 | O=[N+]([O-])c1cc(CSc2nnc(-c3ccc(Cl)cc3)s2)cc([N+](=O)[O-])c1 | inactive | > 125 | > 20 | 29 | Dose-dependent effect | > 125 | 0.125 (≈ 0.0511 µg/mL) | 0.06 (≈ 0.0245 µg/mL) | 20 | > 125 | 94 | 0.125 (≈ 0.0511 µg/mL) | 0.5 (≈ 0.204 µg/mL) | 0.06 (≈ 0.0245 µg/mL) | Activity (PBL [12]): Non-toxic; IC50 [13]: > 20 µM; Stability [14]: Stable; Activity (PBL [15]): Non-toxic; Activity (PBL [16]): Non-toxic; Activity (PBL [17]): Non-toxic
